Where two headings read alike, the source gives them in different places.
Columns and labels:
[1] = system: MCF-7/ADR tumor; test: Ex vivo imaging of organs of tumor-bearing nude mice; format: in vivo; details: DOX about 15 mg/kg, 10 h
Experimental: After 10 h, the heart, liver, spleen, lung, kidney and tumor block were collected, washed and fixed on a black plastic plate, which was then placed in a Maestro in vivo imaging system, and the intensity of DOX distribution in vivo was measured at an emission wavelength of 523 nm.

[2] = system: MCF-7/ADR tumor; test: Bio-distribution in organs of tumor-bearing nude mice; format: in vivo; details: DOX about 15 mg/kg, tail vein, after 10 h
[3] = system: MCF-7/ADR tumor; test: Anti-tumor effect in nude mice bearing drug-resistant breast-cancer tumor
From the text: (§1) Tumor-bearing nude mice with a tumor size of 50 mm^3 were randomly divided into three groups (six in each group), and this day is set to day 0. […] Effects of drug-loaded micelles on tumor growth in nude mice were regularly measured with a caliper. Changes in body weight of nude mice were regularly weighed with a balance. The tumor size was obtained based on a formula V=0.5×L×W×H […] of the longest points of the tumor; W is the length of the shortest points of the tumor; H is the height of the tumor). After 24 days, one mouse was randomly taken from each group and was killed by neck and spine dislocation, and the heart, liver and tumor of each mouse were removed and fixed with 4% formaldehyde, sliced and stained with hematoxylin and eosin (H & E) and subjected to histological analysis. The remaining nude mice were still observed. Mice were considered to be died when the nude mice died during treatment, or the tumor volume exceeded 1000 mm^3. Relative tumor volume (%)=tumor volume/tumor volume on day 0×100%. Relative weight change (%)=body weight of nude mice/body weight of nude mice on day 0×100%.

[4] = system: LP1 tumor (multiple myeloma)
Experimental: as §1, with “[…]” for “50 mm^3”, “V=0.5×L×W×H (L” for “V=0.5×L×W×H”, “[…]” for “nude mice/body”

[5] = Blood circulation in mice after tail vein injection; details: DOX 15 mg/kg, up to 24 h
Experimental: Six about 5-8 weeks old nude mice weighing 18-22 g were randomly divided into two groups, and each group was administered with DOX-loaded HA-Lys-LA crosslinked nanoparticles (MnHA=35 kDa, DS=10%, DLC=12%) or free DOX (DOX dosage being 15 mg/kg) via tail vein injection. 10 μL of blood was withdrawn from the tail vein each time at different time points after injection for 2 minutes, 15 minutes, 30 minutes, 1 h, 2 h, 4 h, 6 h, 8 h, 12 h, 24 h. After the blood was withdrawn, the blood sample was weighed and dissolved in 100 μL of 1% Triton solution, and then 1 mL of 0.75 mol/L hydrochloric acid isopropanol solution was added thereto. The mixture was allowed to stand overnight in dark at −20° C. After centrifugation, the supernatant was subjected to fluorescence test. % ID/g=(FL sample×(V Triton+V hydrochloric acid))/(M blood×FL standard×V standard×standard dilution factor)×100%
Six about 5-8 weeks old nude mice weighing 18-22 g were randomly divided into two groups, and each group was administered with DOX-loaded HA-Lys-LA crosslinked nanoparticles (MnHA=35 kDa, DS=40%, DLC=20%) or free DOX (DOX dosage being 15 mg/kg) via tail vein injection. […] After centrifugation, the supernatant was subjected to fluorescence test. % ID/g=(FL sample×(V Triton+V hydrochloric acid))/(M blood×FL standard×V standard×standard dilution factor)×100% […]

COc1cccc2c1C(=O)c1c(O)c3c(c(O)c1C2=O)C[C@@](O)(C(=O)CO)C[C@@H]3O[C@H]1C[C@H](N)[C@H](O)[C@H](C)O1 [free DOX, doxorubicin]
DOX distribution in tumor and organs (ex vivo fluorescence) [1]: almost did not concentrate at the tumor site | enrichment of DOX at the tumor site [2]: 0.63 % ID/g | reduction of body weight of nude mice ([3]; DOX about 7.5 mg/kg): 28% | side effects ([3]; DOX about 7.5 mg/kg): large side effects | time within which all mice died ([3]; DOX about 7.5 mg/kg): ≤ 28 days | tumor volume growth ([3]; DOX about 7.5 mg/kg, tail vein): could not inhibit tumor growth | H&E histology of heart and liver ([3]; after 24 days): liver corresponding to the free DOX group was greatly damaged, and myocardial cell atrophied | H&E histology of tumor tissue ([3]; after 24 days): grew vigorously | reduction of body weight of nude mice ([4]; DOX about 7.5 mg/kg): about 34% | side effects / tolerance ([4]; DOX about 7.5 mg/kg): large side effects | time within which all mice died ([4]; DOX about 7.5 mg/kg): ≤ 15 days | tumor volume growth / therapeutic effect ([4]; DOX about 7.5 mg/kg, tail vein): could not inhibit tumor growth | side effects / tolerance ([4]; DOX about 7.5 mg/kg, listed as free drug): not tolerated | H&E histology of heart and liver ([4]; after 24 days): liver corresponding to the free DOX group was greatly damaged, and myocardial cell atrophied | H&E histology of tumor tissue ([4]; after 24 days): grew vigorously | blood circulation (DOX in mice blood) [5]: almost not detected in mice blood after 2 h

— patent US10292940B2, “Hyaluronic acid-based amphiphilic polymer, preparation method and application thereof” (BrightGene Bio-Medical Technology Co., Ltd., priority 2015, dated 2019)
